From PMC9502897, “Design, Synthesis and Structure—Activity Relationships of Phenylalanine-Containing Peptidomimetics as Novel HIV-1 Capsid Binders Based on Ugi Four-Component Reaction” (Molecules, 2022)

Assays:
[1] = tested on: MT-4 cells; assay: in vitro
Description: (§1) The evaluation of the antiviral activity of the compounds against HIV in MT-4 cells was performed using the MTT assay as described below. Stock solutions (10 × final concentration) of test compounds were added in 25 μL volumes to two series of triplicate wells to allow simultaneous evaluation of their effects on mock- and HIV-infected cells at the beginning of each experiment. Serial 5-fold dilutions of test compounds were made directly in flat-bottomed 96-well microtiter trays using a Biomek 3000 robot (Beckman Instruments, Fullerton, CA). Untreated HIV- and mock-infected cell samples were included as controls. HIV stock ([…]) at 100–300 CCID50 (50% cell culture infectious doses) or culture medium was added to either the infected or mock-infected wells of the microtiter tray. Mock-infected cells were used to evaluate the effects of the test compound on uninfected cells to assess the test compounds’ cytotoxicity. Exponentially growing MT-4 cells were centrifuged for 5 min at 220 g, and the supernatant was discarded. The MT-4 cells were resuspended at 6 × 10^5 cells/mL, and 50 μL volumes were transferred to the microtiter tray wells. Five days after infection, the viability of mock- and HIV-infected cells was examined spectrophotometrically using the MTT assay. The MTT assay is based on the reduction of yellow-colored 3-(4,5-dimethylthiazol-2-yl)-2,5-diphenyltetrazolium bromide (MTT) (Acros Organics) by mitochondrial dehydrogenase activity in metabolically active cells to a blue-purple formazan that can be measured spectrophotometrically. The absorbances were read in an eight-channel computer-controlled photometer (Infinite M1000, Tecan) at two wavelengths (540 and 690 nm). All data were calculated using the median absorbance value of three wells.

[2] = tested on: HIV-1; assay: Anti-HIV-1 activity in MT-4 cells (MTT method); format: cell-based; conditions: for EC50: MT-4 cells, 50% protection against HIV-induced cytopathicity, MTT method; for anti-HIV activity: R2 1-methylnaphthalene replaced by 2-methylnaphthalene, HIV-1/HIV-2, MT-4 cells
Description: as §1

[3] = tested on: HIV-2; assay: Anti-HIV-2 activity in MT-4 cells (MTT method); format: cell-based
Description: as §1

[4] = in vitro; conditions: human
Description: as §1

[5] = molecular target: HIV-1 NL4-3 CA hexamer (Human immunodeficiency virus type 1 group M subtype B, UniProt P12493, A146C/E177C/M317A/W316A); assay: SPR binding to disulfide-stabilized NL4-3 CA hexamer
[6] = molecular target: T1, HIV-1 NL4-3 CA monomer (Human immunodeficiency virus type 1 group M subtype B, UniProt P12493); assay: biochemical; format: binding; conditions: SPR
T1 construct: the HIV-1 NL4-3 capsid protein constructs; His6 (C); made in house; host or cells: E. coli BL21-Codon Plus (DE3)-RIL

[7] = metabolic stability; cited from earlier work
[8] = tested on: HIV; conditions: moderate activity; cited from earlier work
[9] = Human immunodeficiency virus 1, MT4
[10] = Human immunodeficiency virus 2, MT4, 50% protection against HIV-induced cytopathicity
[11] = 50% protection against HIV-induced cytopathicity

Compound | CC50 ([1]; human, 5 days) [µM] | EC50 [2, 9] [µM] | EC50 [3, 10] [µM] | also measured
COc1ccc(N(C)C(=O)[C@H](Cc2cc(F)cc(F)c2)NC(=O)CN(Cc2ccc(F)cc2)C(=O)Cc2ccc3ccccc3c2)cc1 [I-6, (S)-3-(3,5-difluorophenyl)-2-(2-(N-(4-fluorobenzyl)-2-(naphthalen-2-yl)acetamido)acetamido)-N-(4-methoxyphenyl)-N-methylpropanamide] | > 160 | > 160 | > 160 | anti-HIV activity [2]: lost
COc1ccc(N(C)C(=O)[C@H](Cc2cc(F)cc(F)c2)NC(=O)CN(Cc2ccc(F)cc2)C(=O)Cc2c(C)[nH]c3ccccc23)cc1 [I-7, (S)-3-(3,5-difluorophenyl)-2-(2-(N-(4-fluorobenzyl)-2-(2-methyl-1H-indol-3-yl)acetamido)acetamido)-N-(4-methoxyphenyl)-N-methylpropanamide] | 22.6 ± 0.96 | 2.79 ± 0.19 | > 22.6 | 
COc1ccc(N(C)C(=O)[C@H](Cc2cc(F)cc(F)c2)NC(=O)CN(Cc2ccc(F)cc2)C(=O)Cc2cccc3ccccc23)cc1 [I-8, (S)-3-(3,5-difluorophenyl)-2-(2-(N-(4-fluorobenzyl)-2-(naphthalen-1-yl)acetamido)acetamido)-N-(4-methoxyphenyl)-N-methylpropanamide] | > 191 | > 191 | 5.87 ± 1.79 | 
COc1ccc(N(C)C(=O)[C@H](Cc2cc(F)cc(F)c2)NC(=O)CN(Cc2ccc(F)cc2)C(=O)Cc2c[nH]c3ccc(Br)cc23)cc1 [I-9, (S)-2-(2-(2-(5-bromo-1H-indol-3-yl)-N-(4-fluorobenzyl)acetamido)acetamido)-3-(3,5-difluorophenyl)-N-(4-methoxyphenyl)-N-methylpropanamide] | 17.8 ± 1.04 | 2.93 ± 0.32 | > 17.8 | 
COc1ccc(N(C)C(=O)[C@H](Cc2cc(F)cc(F)c2)NC(=O)CN(CC2CCCCC2)C(=O)Cc2c[nH]c3ccc(Br)cc23)cc1 [I-10, (S)-2-(2-(2-(5-bromo-1H-indol-3-yl)-N-(cyclohexylmethyl)acetamido)acetamido)-3-(3,5-difluorophenyl)-N-(4-methoxyphenyl)-N-methylpropanamide] | 17.6 ± 2.41 | > 17.6 | > 17.6 | 
COc1ccc(N(C)C(=O)[C@H](Cc2cc(F)cc(F)c2)NC(=O)CN(Cc2ccc(F)cc2)C(=O)Cc2ccc(B3OC(C)(C)C(C)(C)O3)cc2)cc1 [I-12, (S)-3-(3,5-difluorophenyl)-2-(2-(N-(4-fluorobenzyl)-2-(4-(4,4,5,5-tetramethyl-1,3,2-dioxaborolan-2-yl)phenyl)acetamido)acetamido)-N-(4-methoxyphenyl)-N-methylpropanamide] | 65.4 ± 16.8 | 11.7 ± 2.07 | 13.2 ± 2.6 | 
COc1ccc(N(C)C(=O)[C@H](Cc2cc(F)cc(F)c2)NC(=O)CN(Cc2ccc(C#N)cc2)C(=O)Cc2ccc3ccccc3c2)cc1 [I-13, (S)-2-(2-(N-(4-cyanobenzyl)-2-(naphthalen-2-yl)acetamido)acetamido)-3-(3,5-difluorophenyl)-N-(4-methoxyphenyl)-N-methylpropanamide] | > 189 | > 189 | 161 ± 26 | anti-HIV activity [2]: lost
COc1ccc(N(C)C(=O)[C@H](Cc2cc(F)cc(F)c2)NC(=O)CN(Cc2ccc(C#N)cc2)C(=O)Cc2cccc3ccccc23)cc1 [I-14, (S)-2-(2-(N-(4-cyanobenzyl)-2-(naphthalen-1-yl)acetamido)acetamido)-3-(3,5-difluorophenyl)-N-(4-methoxyphenyl)-N-methylpropanamide] | > 189 | > 189 | 2.3 ± 0.11 | 
COc1ccc(N(C)C(=O)[C@H](Cc2cc(F)cc(F)c2)NC(=O)CN(Cc2ccc(C#N)cc2)C(=O)Cc2ccc(B3OC(C)(C)C(C)(C)O3)cc2)cc1 [I-17, (S)-2-(2-(N-(4-cyanobenzyl)-2-(4-(4,4,5,5-tetramethyl-1,3,2-dioxaborolan-2-yl)phenyl)acetamido)acetamido)-3-(3,5-difluorophenyl)-N-(4-methoxyphenyl)-N-methylpropanamide] | 52.4 ± 14.2 | 17.7 ± 4.6 | 16.2 ± 4.59 | 
COc1ccc(N(C)C(=O)[C@H](Cc2cc(F)cc(F)c2)NC(=O)CN(C(=O)Cc2ccc(B3OC(C)(C)C(C)(C)O3)cc2)C2CC2)cc1 [I-18, (S)-2-(2-(N-cyclopropyl-2-(4-(4,4,5,5-tetramethyl-1,3,2-dioxaborolan-2-yl)phenyl)acetamido)acetamido)-3-(3,5-difluorophenyl)-N-(4-methoxyphenyl)-N-methylpropanamide] | 89 ± 17.1 | 5.18 ± 1.11 | 9.71 ± 0.8 | 
COc1ccc(N(C)C(=O)[C@H](Cc2cc(F)cc(F)c2)NC(=O)CN(Cc2ccc(F)cc2)C(=O)Cn2nc(C(F)(F)F)c3c2CCCC3)cc1 [I-19, (S)-3-(3,5-difluorophenyl)-2-(2-(N-(4-fluorobenzyl)-2-(3-(trifluoromethyl)-4,5,6,7-tetrahydro-1H-indazol-1-yl)acetamido)acetamido)-N-(4-methoxyphenyl)-N-methylpropanamide] |  | 2.53 ± 0.84 | 12.9 ± 3.72 | CC50 at 5 days ([4]; CC50): 108 ± 27.4 µM; melting point: 46 to 48 °C; Koff Hexamer ([5]; 1:1 binding model): 0.00758 ± 0.000504 S^−1; Kon Hexamer ([5]; 1:1 binding model): 628 ± 152 M^−1S^−1; Kd ([5]; 25 °C, at least 3 replicates): 36.9 µM; Ratio KD (monomer)/KD(hexamer) [6]: 0.36; Koff Monomer ([6]; 1:1 binding model): 0.0301 ± 0.0172 S^−1; Kon Monomer ([6]; 1:1 binding model): 4160 ± 1670 M^−1S^−1; Kd ([6]; 25 °C, at least 3 replicates): 13.3 µM
COc1ccc(N(C)C(=O)[C@H](Cc2cc(F)cc(F)c2)NC(=O)CN(CC2CCCCC2)C(=O)Cn2nc(C(F)(F)F)cc2C)cc1 [I-20, (S)-2-(2-(N-(cyclohexylmethyl)-2-(5-methyl-3-(trifluoromethyl)-1H-pyrazol-1-yl)acetamido)acetamido)-3-(3,5-difluorophenyl)-N-(4-methoxyphenyl)-N-methylpropanamide] | 45.7 ± 5.36 | 30.3 ± 3.24 | 24.9 ± 12 | 
COc1ccc(N(C)C(=O)[C@H](Cc2cc(F)cc(F)c2)NC(=O)CN(Cc2ccccc2)C(=O)Cc2c(C)[nH]c3ccccc23)cc1 [I-21, (S)-2-(2-(N-benzyl-2-(2-methyl-1H-indol-3-yl)acetamido)acetamido)-3-(3,5-difluorophenyl)-N-(4-methoxyphenyl)-N-methylpropanamide] | 28.6 ± 0.86 | 2.77 ± 0.77 | 6.52 ± 0.6 | 
COc1ccc(N(C)C(=O)[C@H](Cc2cc(F)cc(F)c2)NC(=O)CN(Cc2ccccc2)C(=O)Cc2ccc3ccccc3c2)cc1 [I-22, (S)-2-(2-(N-benzyl-2-(naphthalen-2-yl)acetamido)acetamido)-3-(3,5-difluorophenyl)-N-(4-methoxyphenyl)-N-methylpropanamide] | 176 ± 7.35 | > 176 | > 18.9 | 
COc1ccc(N(C)C(=O)[C@H](Cc2cc(F)cc(F)c2)NC(=O)CN(Cc2ccc(F)cc2)C(=O)Cc2ccc(B(O)O)cc2)cc1 [I-23, (S)-(4-(2-((2-((3-(3,5-difluorophenyl)-1-((4-methoxyphenyl)(methyl)amino)-1-oxopropan-2-yl)amino)-2-oxoethyl)(4-fluorobenzyl)amino)-2-oxoethyl)phenyl) boronic acid] | 18.9 ± 3.59 | 4.33 ± 1.32 | 6.8 ± 0.36 | 
Cc1ccnc2c1NC(=O)c1cccnc1N2C1CC1 [NVP, nevirapine, reference compound] |  |  | > 15 | CC50 at 5 days ([4]; mock-infected (uninfected) MT-4 cells, CC50, uninfected MT-4 cells, viability reduced by 50%, MTT method): > 15.2 µM; CC50 ([1]; uninfected MT-4 cells, viability reduced by 50%, MTT method): > 15 µM
Cc1[nH]c2ccccc2c1CC(=O)NC(Cc1ccccc1)C(=O)N(C)c1ccccc1 (stereo not shown) [PF-74, reference compound] |  | 0.26 ± 0.08 | > 2.22 | CC50 at 5 days ([4]; CC50): 73.8 ± 7.54 µM; T1/2 [7]: 30 to 78 s; EC50 [8]: 0.52 to 0.9 µM; EC50 [3, 11]: 2.22 ± 0.31 µM
(S)-2-(2-(2-(5-bromo-2-methyl-1H-indol-3-yl)-N-(4-cyanobenzyl)acetamido)acetamido)-3-(3,5-difluorophenyl)-N-(4-methoxyphenyl)-N-methylpropanamide [I-16] |  |  |  | CC50 [1]: 87.6 ± 62.2 µM; EC50 [2]: 5.61 ± 1.18 µM; EC50 [3, 11]: 15.7 ± 13.3 µM
(S)-2-(2-(N-(4-cyanobenzyl)-2-(5-fluoro-2-methyl-1H-indol-3-yl)acetamido)acetamido)-3-(3,5-difluorophenyl)-N-(4-methoxyphenyl)-N-methylpropanamide [I-15] |  |  |  | CC50 [1]: 148 ± 16.6 µM; EC50 [2]: 17.2 ± 9.98 µM; EC50 [3, 11]: 5.81 ± 1.11 µM
